“And” between values parts separate entries of the source, which are not always exact repeats. Equal entries are not always repeated. The source made the active and inactive calls. Rule as the data show it: active = AC50 below about 11 µM. Numbered stars: 1 amine (or outer) side, 2 acyl side, 3 side chain; on linkers, the order of the positions; unused ones are H or OH. Bridge positions count the residues as written; N and C are the ends. Square brackets hold non-standard residues; d marks the D form. Peptide text beside a SMILES is read from it. I, II: the chains in the order shown. Actinocin(9to1) = Cc1c2oc3c(C)ccc(C(=O)[*:1])c3nc-2c(C(=O)[*:2])c(N)c1=O; NMeV = CN[CH](C(=O)O)C(C)C; Sar = CNCC(=O)O
test system: B cell line, TNFa signaling counterscreen reporter; assay: TNFa signaling inhibitors in B cell line, dose response, counter-screen (AID 1259334);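 also: cells stimulated with TNFa after compound preincubation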

| SMILES | AC50 |
| --- | --- |
| Cc1c2oc3c(C)ccc(C(=O)OC(C)C4NC(=O)C(C(C)C)N(C)C(=O)CN(C)C(=O)C5CCCN5C(=O)C(C(C)C)NC4=O)c3nc-2c(C(=O)OC(C)C2NC(=O)C(C(C)C)N(C)C(=O)CN(C)C(=O)C3CCCN3C(=O)C(C(C)C)NC2=O)c(N)c1=O (stereo unspecified) (I: cyclo([Sar][NMeV]TVP) / II: cyclo([Sar][NMeV]TVP); linker I:3-II:3 via Actinocin(9to1); configuration not given here) | 0.00519 µM |
| C[C@@H]1CN([C@@H](C)CO)C(=O)c2c(c3ccccc3n2C)-c2ccccc2CO[C@H]1CN(C)S(=O)(=O)c1ccc([N+](=O)[O-])cc1 | > 20 µM (inactive) |
| COC(=O)C12OCC34C(CC5C(C)=C(O)C(=O)CC5(C)C3C(O)C1O)OC(=O)C(OC(=O)C=C(C)C)C24 (stereo unspecified) | 0.671 µM |
| C[C@H](CO)N1C[C@H](C)[C@H](CN(C)S(=O)(=O)c2ccc(Cl)cc2)Oc2c(NC(=O)Nc3ccc(F)cc3)cccc2C1=O | 4.98 µM |
| CS(=O)(=O)c1ccc(C(=O)OCC(=O)NC(=O)C2COc3ccccc3O2)cc1[N+](=O)[O-] (stereo unspecified) | 5.1 µM |
| COc1cccc(-c2cc(=O)c3cc(OC)ccc3o2)c1 | 3.07 µM |
| O=C1c2c(O)ccc(O)c2C(=O)c2c(NCCNCCO)ccc(NCCNCCO)c21 | 1.18 µM |
| Cc1[nH]c2ccccc2c1C(c1ccccn1)N1CCC(C(N)=O)CC1 (stereo unspecified) | 6 µM |
| COc1ccc(/C=C/C(=O)Nc2ccccc2C(=O)O)cc1OC | 8.81 µM |
| C[C@@H]1CCCCO[C@H](CN(C)CC2CCCCC2)[C@H](C)CN([C@@H](C)CO)C(=O)c2cc(NC(=O)Nc3ccc(C(F)(F)F)cc3)ccc2O1 | > 20 µM (inactive) |
| CCOc1ncccc1C(=O)OC(C)C(=O)Nc1ccc(Cl)cn1 (stereo unspecified) | 10.3 µM |
| C[C@@H]1CCCCO[C@@H](CN(C)Cc2ccc(Cl)c(Cl)c2)[C@H](C)CN([C@H](C)CO)C(=O)c2cc(NS(=O)(=O)c3cccs3)ccc2O1 | 6.39 µM |
| OC(c1cc(-c2cccc(Cl)c2)nc2ccccc12)C1CCCCN1 (stereo unspecified) | 2.26 µM |
| CC(C)(C)OC(=O)CC(S(=O)(=O)c1ccccc1)S(=O)(=O)c1ccccc1 | 1.07 µM |
| CC1CC(C)C(=NNC(N)=O)C(C(O)CC2CCC(=O)NC2=O)C1 (stereo unspecified) | 0.188 µM |
| COc1ccc(CN(CCC(c2ccc(F)cc2)C2CCOC(C)(C)C2)C(=O)c2ccco2)cc1 (stereo unspecified) | 11.3 µM |
| CCCCn1c(NC(=O)c2ccc(Br)o2)c(S(=O)(=O)c2ccccc2)c2nc3ccccc3nc21 | 9.82 µM |
| CC1=CC2OC3CC4OC(=O)C=CC=CC(=O)OCCC(C)C(O)C(=O)OCC2(CC1O)C4(C)C31CO1 (stereo unspecified) | 0.00511 µM |
| O=C1NC2C(O)C(O)C(O)C(O)C2c2cc3c(c(O)c21)OCO3 (stereo unspecified) | 0.125 µM |
| C[C@@H]1O[C@@H](O[C@H]2C[C@@H](O)[C@]3(CO)C4C(CC[C@]3(O)C2)[C@@]2(O)CC[C@H](C3=CC(=O)OC3)[C@@]2(C)C[C@H]4O)[C@H](O)[C@H](O)[C@H]1O (stereo partly specified) | 0.138 µM |
| CC1(C)C(=O)C=C[C@@]2(C)C1C[C@@H](O)[C@]1(C)C2CC[C@@]2(C)[C@H](c3ccoc3)OC(=O)[C@H]3O[C@]321 (stereo partly specified) | 11.3 µM |
| O=C(COc1cccnc1[N+](=O)[O-])c1ccc(Cl)s1 | 4.71 µM |

| SMILES | AC50 |
| --- | --- |
| O=C1CC(c2ccc3c(c2)OCO3)Sc2nc3ccccc3n21 (stereo unspecified) | 3.83 µM |
| C[C@H]1CN([C@@H](C)CO)C(=O)c2cccc(NC(=O)Nc3ccc(F)cc3)c2O[C@H]1CN(C)S(=O)(=O)c1ccc(Cl)cc1 | 5.13 µM |
| CCCn1c(NC(=O)c2cccc(S(=O)(=O)N3CCCC3)c2)nc2ccccc21 | 2.61 µM |
| CNC(=S)NN=C(C)CCCC(C)=NNC(=S)NC | 2.47 µM |
| c1ccc(-c2nc(-c3ccccn3)no2)cc1 | 3.9 µM |
| Nc1ccc(-c2cccc3c(=O)cc(N4CCOCC4)oc23)cc1 | 8.56 µM |
| O=C1c2ccccc2C(=O)C1c1ccc2ccccc2n1 | 10.6 µM |
| Cc1c(C(=O)c2cccc3ccccc23)c2cccc3c2n1[C@H](CN1CCOCC1)CO3 | 10.2 µM |
| CC12CCC3C(CCC4(O)CC(O)CCC34C=O)C1(O)CCC2C1=CC(=O)OC1 (stereo unspecified) | 3.75 µM |
| Cc1ccc(S(=O)(=O)CCC(=O)N(CCCN2CCOCC2)c2nc3ccccc3s2)cc1 | 7.38 µM |
| COc1ccc(C[C@H]2NC[C@H](O)[C@H]2OC(C)=O)cc1 | 0.0144 µM |
| CN1C(=O)/C(=N\OC(=O)c2cccc3ccccc23)c2ccccc21 | 1.85 µM |
| Oc1c(Cl)cc(Cl)c(Cl)c1Cc1c(O)c(Cl)cc(Cl)c1Cl | 2.69 µM |
| O=C(c1ccc(Nc2nccc(-c3cc4ccccc4s3)n2)cc1)N1CCC(N2CCCC2)CC1 | 0.15 µM and 0.715 µM |
| NC(=O)c1c(Br)n(C2OC(CO)C(O)C2O)c2ncnc(N)c12 (stereo unspecified) | 1.5 µM |
| COc1cccc(S(=O)(=O)N(C)C[C@@H]2OCc3ccccc3-c3c(n(C)c4ccccc34)C(=O)N([C@@H](C)CO)C[C@@H]2C)c1 | > 20 µM (inactive) |
| COc1cc2c(cc1OC)C(=O)C(Br)CC2 (stereo unspecified) | 2.97 µM |
| O=C(C#Cc1ccccc1)c1ccccc1 | 5.68 µM |
| Cc1ccsc1C(=O)OCC(=O)c1cc(C)n(CC2CCCO2)c1C (stereo unspecified) | 0.0426 µM |
| C=C1C(=O)C23C(O)C1CCC2C12CCCC(C)(COC(C)=O)C1C(O)C3(O)OC2 (stereo unspecified) | 0.507 µM |
| C[C@@H]1CN([C@H](C)CO)C(=O)c2c(c3ccccc3n2C)-c2ccccc2CO[C@@H]1CN(C)C(=O)c1cc(Cl)cc(Cl)c1 | 8.14 µM |
| Cn1cc(C2=C(c3cn(CCCSC(=N)N)c4ccccc34)C(=O)NC2=O)c2ccccc21 | 0.305 µM |

| SMILES | AC50 |
| --- | --- |
| C=CC[n+]1c(/C=C2\C=Cc3cc(C)ccc3N2CC)ccc2ccccc21 | 0.951 µM |
| CC[C@H]1CN2CCc3cc(OC)c(OC)cc3C2C[C@@H]1CC1NCCc2cc(OC)c(OC)cc21 (stereo partly specified) | 0.011 µM |
| C[C@@H]1CN([C@@H](C)CO)C(=O)c2c(c3ccccc3n2C)-c2ccccc2CO[C@@H]1CN(C)C(=O)Nc1ccccc1C(F)(F)F | 7.57 µM |
| N#Cc1c(Br)n(C2OC(CO)C(O)C2O)c2ncnc(N)c12 (stereo unspecified) | 1.16 µM |
| C[C@@H]1CN([C@@H](C)CO)C(=O)Cc2cc(NS(=O)(=O)c3ccc(F)cc3)ccc2O[C@H]1CN(C)Cc1ccc(C(F)(F)F)cc1 | 5.36 µM |
| C[C@H](CO)N1C[C@H](C)[C@@H](CN(C)Cc2ccc(Cl)c(Cl)c2)OCCCC[C@H](C)Oc2ccc(NS(=O)(=O)c3cccs3)cc2C1=O | 8.48 µM |
| C[C@@H]1CN([C@@H](C)CO)C(=O)c2ccccc2-c2ccccc2CO[C@@H]1CN(C)C(=O)c1cc(Cl)cc(Cl)c1 | > 20 µM (inactive) |
| CC12CCC3C(CCC4(O)CC(O)CCC34C=NO)C1(O)CCC2C1=COC(=O)C1 (stereo unspecified) | 0.6 µM |
| CCC(=O)NC(c1ccccc1OC)c1ccc2cccnc2c1O (stereo unspecified) | 9.46 µM |
| O=C(C[C@@H]1CC[C@@H]2[C@H](COC[C@H](O)CN2Cc2cc(F)ccc2F)O1)NCc1ccc(Oc2ccccc2)cc1 | 5.02 µM |
| Cc1cccc(-c2ccc(C3[C@@H]4CN(C(=O)Nc5ccc(C(F)(F)F)cc5)C[C@H]3N4)cc2)c1 (stereo partly specified) | > 20 µM (inactive) |
| CC(C)Cc1ccc(C(C)/C=C2/CCC(CN3CCCCC3)C2=O)cc1 (stereo unspecified) | 8.62 µM |
| CC(C)(C)c1cc(C=C(C#N)C#N)cc(C(C)(C)C)c1O | 1.22 µM |
| CSC1SCC2C(=O)N(C)C(C(C)C)C(=O)OCC(NC(=O)c3cnc4ccccc4n3)C(=O)NC(C)C(=O)N(C)C1C(=O)N(C)C(C(C)C)C(=O)OCC(NC(=O)c1cnc3ccccc3n1)C(=O)NC(C)C(=O)N2C (stereo unspecified) | < 0.0005 µM |
| c1ccc(OCCSc2nnc3sc4ccccc4n23)cc1 | 2.98 µM |
| C[C@@H]1C[C@@H]([C@H](O)CC2CC(=O)NC(=O)C2)C(=O)[C@@H](C)C1 | 0.199 µM |
| O=C(/C=C/c1ccccc1)CC(O)(c1ccccc1)C(F)(F)C(F)F (stereo unspecified) | 5.06 µM |
| COC(=O)C1=C(C)NC(C)=C(C(=O)OCCCN2CCC(c3ccccc3)(c3ccccc3)CC2)[C@H]1c1cccc([N+](=O)[O-])c1 | 4.12 µM |
| Cc1ccc(OC(=O)N(C)C[C@@H]2OCc3ccccc3-c3c(n(C)c4ccccc34)C(=O)N([C@@H](C)CO)C[C@H]2C)cc1 | 7.67 µM |
| COCC(=O)N1[C@H](C#N)[C@H](c2ccc(C#Cc3ccccc3F)cc2)[C@H]1CO | 2.23 µM |
| O=C(Nc1nc2ccccc2s1)c1ccc(OCC2CCCO2)cc1 (stereo unspecified) | 10.2 µM |
| O=C(COC(=O)c1ccccc1C(=O)c1ccc(Cl)c([N+](=O)[O-])c1)NC1CC1 | 1.47 µM |

| SMILES | AC50 |
| --- | --- |
| O=S(=O)(/C(=C\c1ccc(C(F)(F)F)cc1)c1nc2ccccc2[nH]1)c1ccccc1 | 0.497 µM |
| COc1ccc(CN2CC3(CN(C(=O)Cc4ccccc4)C3)c3c([nH]c4cc(OC)ccc34)[C@@H]2CO)cc1 | > 20 µM (inactive) |
| CC1CC(C)CC(C)C(O)C(C#N)=CC=CCC(C2CCCC2C(=O)O)OC(=O)CC(O)C(C)C1 (stereo unspecified) | < 0.0005 µM |
| CCC(C)[C@H]1O[C@]2(CC[C@@H]1C)C[C@@H]1C[C@@H](C/C=C(\C)[C@@H](OC3C[C@H](OC)C(O[C@H]4C[C@H](OC)[C@@H](O)[C@H](C)O4)[C@H](C)O3)[C@@H](C)/C=C/C=C3\CO[C@@H]4[C@H](O)C(C)=C[C@@H](C(=O)O1)[C@]34O)O2 (stereo partly specified) | > 20 µM (inactive) |
| COc1ccc(S(=O)(=O)Nc2ccc3c(c2)C(=O)N([C@H](C)CO)C[C@H](C)[C@@H](CN(C)Cc2ccc(C(F)(F)F)cc2)OCCCC[C@@H](C)O3)cc1 | 8.37 µM |
| Cc1noc(C)c1S(=O)(=O)N(C)C[C@H]1OCc2ccccc2-c2c(n(C)c3ccccc23)C(=O)N([C@@H](C)CO)C[C@H]1C | > 20 µM (inactive) |
| Cc1cnc(NC(=O)c2ccc(OCC3CCCO3)cc2)s1 (stereo unspecified) | 4.02 µM |
| CC(=O)Nc1ccc(Sc2ccc([N+](=O)[O-])o2)cc1 | 1.64 µM |
| O=C(Nc1cccc(N2C(=O)C=CC2=O)c1)c1cccs1 | 1.22 µM |
| CCN(CC)CCCNc1nc2ccccc2c2[nH]c3ccc(OC)cc3c12 | 2.11 µM |
| CC(NCC(O)COCCC12CC3CC(CC(C3)C1)C2)c1ccccc1 (stereo unspecified) | 4.1 µM |
| O=C1/C(=C/c2ccccc2)C[C@@]2(O)C3Cc4ccc(O)c5c4[C@@]2(CCN3CC2CC2)[C@H]1O5 | 1.34 µM |
| CC(C)Cc1ccc(C(C)CC2=CCC(CN(C)C)C2=O)cc1 (stereo unspecified) | 2.41 µM |
| Cc1noc(C)c1S(=O)(=O)N(C)C[C@@H]1OCc2ccccc2-c2c(n(C)c3ccccc23)C(=O)N([C@@H](C)CO)C[C@@H]1C | 10.2 µM |
| CCCCCN1C=CC(=C2C(=O)c3ccccc3C2=O)C=C1 | 0.316 µM |
| CN(C)C(=S)SSC(=S)N(C)C | 0.0358 µM |
| Cc1csc(NC(=O)c2ccc(N3CCCC3=O)cc2)n1 | 3.75 µM |
| c1ccc(-c2nnc(-c3ccccn3)nn2)nc1 | 11.4 µM |
| C=C1C(=O)OC2C=C(CO)C3OC3C3OC3(C)CC(OC(=O)/C(=C/C)COC(C)=O)C12 (stereo unspecified) | 1.67 µM |
| CC(=O)NC12CC3CC(C1)CC(C(=O)OCC(=O)c1ccc4c(c1)OCCO4)(C3)C2 | 6.44 µM |

Source: PubChem BioAssay AID1259334 (Broad Institute, 2017)
